Source: patent publication US20200345637A1, “SUSPENSION COMPOSITIONS OF MULTI-TARGET INHIBITORS” (AIVIVA BIOPHARMA, INC., priority 2018, published 2020)
≈ marks a conversion by molar mass, not a printed value. Where “and” joins values, the source holds several entries; their conditions need not be identical. Identical values can stand only once. Like-named read-outs stand apart in the source and are kept apart here.

Tests used:
[1] = Aqueous solubility of multi-target inhibitors; type: physicochemical; settings: aqueous (not further specified)
Excerpt: Non-limiting examples of the useful multi-target inhibitors and their physicochemical forms are given in Table 1 with aqueous solubility information.

[2] = Suspension physical testing: particle size, pH, osmolality, syringeability; type: physicochemical; parameters: API Raw Material PSD D50 / Formulated Suspension Particle size distribution D50 / API Raw Material PSD D90 / Formulated Suspension Particle size distribution D90: unit not given here; settings: for Formulated Suspension Syringeability: needle gauge passed
Excerpt: (§1) Examples 1-3 depict the results of physical testing of some subject formulations.

[3] = Terminal sterilization and stability assay of formulated suspension; type: physicochemical
Excerpt: as §1

[4] = test system: choroid neovascularization lesions; test: Laser-induced choroid neovascularization model in rats; type: in vivo, Brown Norway rats; settings: intravitreal injection 50 μg/eye; fluorescein angiography Day 22
Experimental: The tolerability, efficacy, and ocular distribution were evaluated in a laser-induced choroid neovascularization model in rats. […] In this 22-day study, effects of local administration of the multi-target (i.e., multi-target kinase) inhibitors nintedanib and lenvatinib were examined on the development of new vessels. Vehicle and positive control groups were included in the study. Female Brown Norway rats were divided into 7 separate treatment groups. On Day 1, laser treatments were performed on all animals using a 520 nm thermal laser to generate a total of three lesions per eye. […] On Day 3, bilateral intravitreal injections of vehicle, 5 μg/eye of rat anti-VEGF antibody, 50 μg/eye of nintedanib, or 50 μg/eye of lenvatinib were performed. On Day 22, fluorescein angiography was performed on all animals, and the lesion sizes/areas were determined using image analysis software (Image J). […] Concentrations of test compounds in ocular tissues and plasma were measured by LCMS-MS after intravitreal or eyedrop administration in rats. […] The eyedrop administration produced higher drug concentrations in the ocular surface, such as conjunctiva, than the intravitreal injection. Three times daily eyedrop administration maintained higher concentrations in plasma than a single intravitreal injection.

in vivo [5] = test: in vivo; parameters: species or system New Zealand White rabbits; settings: male, New Zealand White, rabbit
Experimental: Five to seven male New Zealand White rabbits were used per treatment group. Each eye received a 35 μl eyedrop of vehicle, or respective drugs (0.3%) three times daily for 10 days. After the last dose on Day 11, the animals were sacrificed and eyes were enucleated, and plasma and the ocular tissues were collected. Tissue and plasma concentrations of these compounds were measured by LC-MS/MS.

[6] = test system: linear incision wound sites; test: Intradermal injection along linear incision wounds, histological evaluation; type: in vivo, minipigs; settings: for granulation tissue formation compared to vehicle treated control wounds / presence of myofibroblasts compared to vehicle treated control wounds: 2% suspension (sorafenib 1% suspension); for SMA staining / dermis fibrin / dermis fibroplasia / dermis provisional matrix / epidermis hyperplasia / inflammation / subcutis fibroplasia / subcutis mixed cell infiltrate: microscopic grade over 29 days
Experimental: The purpose of this study was to evaluate the suspension formulation when administered via intradermal injection with axitinib, nintedanib, sorafenib, and lenvatinib to the dorsal skin along linear incisions of minipigs.
Four male minipigs were dosed. Animals were dosed once via intradermal injection along the edges of each of 10 wound sites for each animal (5 wounds on each side of the dorsum [perpendicular to the spine], approximately 3 cm in length and 3 cm distance from the spine). Axitinib, nintedanib, lenvatinib, and the vehicle control article were administered via eight 0.1 mL intradermal injections around each respective wound site (one injection/cm on both sides of the wound), for a total volume of 0.8 mL/wound site. Sorafenib was administered via the same method at a volume of 0.2 mL/injection, for a total volume of 1.6 mL/wound site. The vehicle control article was Vehicle for Test Articles axitinib, nintedanib, lenvatinib, and sorafenib.
A generalized measure of inflammation, including inflammatory cell infiltrate, fibrin deposition, fibroplasia, epithelial hyperplasia and areas of tissue necrosis were assessed microscopically. […] For test agent treated wounds, all were graded as slight on Day 4, and there was no consistent difference over time as compared to the control group.

[7] = rabbit, in vivo; for tissue concentrations in the retina and choroid / intravitreal dose remained in the vitreous humor / depot and streaks in vitreous humor by fundus imaging: Dutch Belted
Experimental: (§2) This study evaluated the tolerability and dispersion of the formulations of nintedanib and lenvatinib over 42 days in the posterior segment of the eyes. A single 50 μL intravitreal administration of the 1% suspension was administered to Dutch Belted rabbits.

[8] = rabbit, in vivo
Experimental: (§3) This study evaluated the local tolerance of vehicle, axitinib, pirfenidone, sorafenib and lenvatinib and ocular distribution of axitinib, sorafenib and lenvatinib (0.3% w/w) when administered by topical ocular instillation in the eyes of New Zealand white rabbits (n=6 per group). […] On Dosing Day 5, the animals were sacrificed and eyes were enucleated. Ocular and plasma concentrations of select compounds were measured by LC-MS/MS.

[9] = systemic; literature or US label; cited from earlier work
in vivo [10] = settings: Dutch Belted, rabbit
Experimental: as §2

in vivo [11] = settings: New Zealand White, rabbit
Experimental: as §3

| SMILES | solubility [1] [µg/mL] | API Raw Material PSD D50 [2] | API Raw Material PSD D90 [2] | Formulated Suspension Osmolality [2] [mOsm/kg] | Formulated Suspension Particle size distribution D50 [2] | Formulated Suspension Particle size distribution D90 [2] | Formulated Suspension pH [2] | Formulated Suspension Syringeability [2] | Assay (% of labeled claim) of Formulated Suspension, Initial ([3]; Autoclave) | Assay (% of labeled claim) of Formulated Suspension, 4 months (40° C./75% RH) ([3]; Gamma irradiation) | Assay (% of labeled claim) of Formulated Suspension, 6 weeks (40° C./75% RH) ([3]; Gamma irradiation) | Assay (% of labeled claim) of Formulated Suspension, Initial ([3]; Gamma irradiation) | lesion sizes relative to vehicle-treated eyes [4] | granulation tissue formation compared to vehicle treated control wounds [6] | presence of myofibroblasts compared to vehicle treated control wounds [6] | SMA staining [6] | dermis fibrin [6] | dermis fibroplasia [6] | dermis provisional matrix [6] | epidermis hyperplasia [6] | also measured |
| --- | --- | --- | --- | --- | --- | --- | --- | --- | --- | --- | --- | --- | --- | --- | --- | --- | --- | --- | --- | --- | --- |
| COc1cc2nccc(Oc3ccc(NC(=O)NC4CC4)c(Cl)c3)c2cc1C(N)=O [Lenvatinib] | 4 (≈ 9.37 µM) | D50: 164 | D90: 346 | 201 | D50: 7 | D90: 25 | 7.6 | Pass 27G | 99.0 % of labeled claim | 99.8 % of labeled claim and 100.2 % of labeled claim | 99.2 % of labeled claim and 99.8 % of labeled claim | 101.4 % of labeled claim and 102.4 % of labeled claim | significantly reduced lesion sizes | delay in granulation tissue formation | prolonged presence of myofibroblasts | slight | minimal to slight | minimal to slight | marked to minimal | slight to none | lesion sizes relative to positive control, rat anti-VEGF [4]: significantly reduced lesion sizes; concentration at 11 day (after the last dose) (in vivo [5]): 98.5 ng/mL; inflammation [6]: slight to marked; subcutis fibroplasia [6]: moderate to minimal; subcutis mixed cell infiltrate [6]: slight to severe; tissue concentrations in the retina and choroid [7]: over 1 μg/gm; intravitreal dose remained in the vitreous humor ([7]; 29 days): 9-17%; depot and streaks in vitreous humor by fundus imaging ([7]; 42 days): remained present out to Day 42 postdose; intravitreal dose remained in the vitreous humor ([7]; 42 days): 3-9%; concentrations in the choroid and retina [8]: significant concentrations; drug concentrations in anterior tissues of conjunctiva, sclera and cornea [8]: high drug concentrations; terminal plasma half-life in man [9]: 30 h; concentration at 29 days (in vivo [10]): 4.94 ng/mL; concentration at 42 days (in vivo [10]): 3.91 ng/mL; concentration at 5 day of dosing (in vivo [11]): 131 ng/mL |
| COC(=O)c1ccc2c(c1)NC(=O)/C2=C(\Nc1ccc(N(C)C(=O)CN2CCN(C)CC2)cc1)c1ccccc1 [Nintedanib] | 9 (≈ 16.7 µM) | D50: 68 | D90: 105 | 207 | D50: 22 | D90: 35 | 7.6 | Pass 23G | 96.0 % of labeled claim | 90.0 % of labeled claim and 97.9 % of labeled claim | 98.1 % of labeled claim and 99.7 % of labeled claim | 101.8 % of labeled claim and 103.0 % of labeled claim | significantly reduced lesion sizes | delay in granulation tissue formation | prolonged presence of myofibroblasts | none to moderate | slight to moderate | none to slight | marked | minimal to moderate | inflammation [6]: slight to moderate; subcutis fibroplasia [6]: none to moderate; subcutis mixed cell infiltrate [6]: slight to marked; tissue concentrations in the retina and choroid [7]: higher than 1 μg/gm; depot and streaks in vitreous humor by fundus imaging ([7]; 42 days): remained present out to Day 42 postdose; intravitreal dose remained in the vitreous humor ([7]; 42 days): 4-7%; Concentrations in conjunctival tissue [7]: mostly under quantitation limit; terminal plasma half-life in man [9]: 9.5 h; concentration at 29 days (in vivo [10]): 0.252 ng/mL; concentration at 42 days (in vivo [10]): 0.348 ng/mL |
